This is an account of results in ChEMBL document CHEMBL1138886, “Dissociated nonsteroidal glucocorticoid receptor modulators; discovery of the agonist trigger in a tetrahydronaphthalene-benzoxazine series” (J Med Chem, 2006).

The target of assay [1] is T1, Glucocorticoid receptor (Homo sapiens, UniProt P04150).
T1 sequence (P04150 whole entry): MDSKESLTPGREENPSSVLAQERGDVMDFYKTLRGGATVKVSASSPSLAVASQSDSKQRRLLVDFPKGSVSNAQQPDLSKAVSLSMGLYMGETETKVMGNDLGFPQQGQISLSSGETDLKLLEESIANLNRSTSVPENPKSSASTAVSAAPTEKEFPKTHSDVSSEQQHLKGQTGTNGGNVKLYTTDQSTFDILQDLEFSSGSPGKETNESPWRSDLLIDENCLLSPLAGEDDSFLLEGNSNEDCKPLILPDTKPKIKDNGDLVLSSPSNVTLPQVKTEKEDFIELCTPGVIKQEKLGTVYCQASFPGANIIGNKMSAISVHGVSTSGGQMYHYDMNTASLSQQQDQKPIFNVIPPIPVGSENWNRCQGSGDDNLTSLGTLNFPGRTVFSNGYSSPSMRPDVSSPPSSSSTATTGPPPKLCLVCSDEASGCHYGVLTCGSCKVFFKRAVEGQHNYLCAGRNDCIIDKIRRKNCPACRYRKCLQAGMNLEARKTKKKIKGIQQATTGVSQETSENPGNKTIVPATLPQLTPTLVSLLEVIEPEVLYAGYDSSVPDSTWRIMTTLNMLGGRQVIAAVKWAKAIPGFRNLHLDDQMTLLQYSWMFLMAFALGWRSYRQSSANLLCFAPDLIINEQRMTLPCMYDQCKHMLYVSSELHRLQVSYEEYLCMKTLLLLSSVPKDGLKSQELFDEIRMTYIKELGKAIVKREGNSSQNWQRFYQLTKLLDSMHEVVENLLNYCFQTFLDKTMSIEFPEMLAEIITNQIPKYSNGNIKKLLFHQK
Description: Agonist activity at GR assessed as NF-kappaB-mediated transrepression of secreted placental alkaline phosphatase gene in human A549 cells

Assay [2] concerns the target T1, Glucocorticoid receptor. The source holds these as a separate data set.
In assay [3] the target is T1, Glucocorticoid receptor. The source holds these as a separate data set.

Each structure is given as a SMILES string.

`Cc1cccc2c1CCCC2CC(O)(C(=O)Nc1ccc2c(=O)onc(C)c2c1)C(F)(F)F` (stereo in doubt; 19b): the 50% inhibitory concentration (IC50) (in general, the midpoint of a concentration-inhibition curve) in assay [1] was over 1000 nM; in assay [2], 200 nM; in assay [3] it was 3.16 nM. In the case of `Cc1noc(=O)c2ccc(NC(=O)C(O)(CC3CCCc4cccc(F)c43)C(F)(F)F)cc12` (stereo not given), the IC50 was over 1000 nM in assay [1] and 31.6 nM in assay [3]. For `Cc1noc(=O)c2ccc(NC(=O)C(O)(CC3CCCc4ccc(F)cc43)C(F)(F)F)cc12` (stereo not given), in that order: over 1000 nM and 15.8 nM. In assay [3], `CCC1(CC(O)(C(=O)Nc2ccc3c(=O)onc(C)c3c2)C(F)(F)F)CCOc2ccccc21` (stereo in doubt; 37) showed an IC50 of 16.6 nM. The same measure, in the same setting: the figure for `Cc1noc(=O)c2ccc(NC(=O)C(O)(CC3CCCc4c(Br)cccc43)C(F)(F)F)cc12` (stereo in doubt; 23b) is 39.8 nM. As to `CCC1(CC(O)(C(=O)Nc2ccc3c(=O)onc(C)c3c2)C(F)(F)F)CCOc2ccccc21` (stereo in doubt; 38), the IC50 in assay [1] is over 10000 nM; in assay [3] it was 11.7 nM.

`Cc1noc(=O)c2ccc(NC(=O)C(O)(CC3CCCc4c(Br)cccc43)C(F)(F)F)cc12` (stereo in doubt; 23c): half-maximal inhibition in assay [3] (IC50) required 6.31 nM. `Cc1noc(=O)c2ccc(NC(=O)C(O)(CC3(C)CCCc4ccccc43)C(F)(F)F)cc12` (stereo in doubt; 35b): the values for the IC50 in assay [1] and in assay [3] were 1260 nM and 7.94 nM, respectively. On the same counts, the results for `Cc1noc(=O)c2ccc(NC(=O)C(O)(CC3(C)CCCc4ccccc43)C(F)(F)F)cc12` (stereo in doubt; 35c) are over 10000 nM and 251 nM. For `Cc1noc(=O)c2ccc(NC(=O)C(O)(CC3CCCc4ccc([N+](=O)[O-])cc43)C(F)(F)F)cc12` (stereo not given), in that order: over 1000 nM and 20 nM. On the same counts, the results for `Cc1noc(=O)c2ccc(NC(=O)C(O)(CC3CCCc4c(C#N)cccc43)C(F)(F)F)cc12` (stereo not given) are over 1000 nM and 15.8 nM. Turning to `Cc1noc(=O)c2ccc(NC(=O)C(O)(CC3CCCc4cc([N+](=O)[O-])ccc43)C(F)(F)F)cc12` (stereo not given), the results for the IC50 in assay [1] and in assay [3] were over 1000 nM and 126 nM, respectively. For `COc1cccc2c1CCCC2CC(O)(C(=O)Nc1ccc2c(=O)onc(C)c2c1)C(F)(F)F` (stereo not given), in that order: over 1000 nM and 12.6 nM. On the same counts, the results for `Cc1noc(=O)c2ccc(NC(=O)C(O)(CC3CCCc4c(Br)cccc43)C(F)(F)F)cc12` (stereo in doubt; 23f) are over 1000 nM and 631 nM.

Turning to `Cc1noc(=O)c2ccc(NC(=O)C(O)(CC3CCCc4ccccc43)C(F)(F)F)cc12` (stereo not given), the half-maximal inhibitory concentration (IC50) in assay [1] is over 1000 nM; in assay [3], 7.94 nM. Take `Cc1noc(=O)c2ccc(NC(=O)C(O)(CC3(C)CCCc4ccccc43)C(F)(F)F)cc12` (stereo in doubt; 35a): the IC50 in assay [1] is over 10000 nM; in assay [3], 316 nM. As to `Cc1noc(=O)c2ccc(NC(=O)C(O)(CC3CCCc4c(Cl)cccc43)C(F)(F)F)cc12` (stereo in doubt; 20a), in assay [3], the midpoint of inhibition, the IC50, lay at 15.8 nM. `Cc1noc(=O)c2ccc(NC(=O)C(O)(CC3CCCc4c3cccc4[N+](=O)[O-])C(F)(F)F)cc12` (stereo not given): the IC50 in assay [1] was over 1000 nM; in assay [3], 12.6 nM.

With `Cc1cccc2c1CCCC2CC(O)(C(=O)Nc1ccc2c(=O)onc(C)c2c1)C(F)(F)F` (stereo in doubt; 19a), the concentration for half-maximal inhibition (IC50) in assay [2] was 794 nM; in assay [3] it was 20 nM.

As for `Cc1noc(=O)c2ccc(NC(=O)C(O)(CC3CCCc4cc(F)ccc43)C(F)(F)F)cc12` (stereo not given), the IC50 is over 1000 nM in assay [1] and 12.6 nM in assay [3]. In turn, `Cc1noc(=O)c2ccc(NC(=O)C(O)(CC3CCCc4c(Br)cccc43)C(F)(F)F)cc12` (stereo in doubt; 23e) showed a concentration for half-maximal inhibition (IC50) in assay [3] of 25.1 nM. Consider `Cc1noc(=O)c2ccc(NC(=O)C(O)(CC3CCCc4c(Br)cccc43)C(F)(F)F)cc12` (stereo in doubt; 23a), for which the half-inhibitory concentration (IC50) in assay [2] was 794 nM; in assay [3], 15.8 nM.
